Results reported in PMC11111408, “Concurrent inhibition of oncogenic and wild-type RAS-GTP for cancer therapy” (Nature, 2024).
Several values for one entry are separate records, joined by “and”; a condition that tells them apart may be missing. Identical values can stand only once.

Experiments:
[1] = target: KRAS^G12V (Homo sapiens, UniProt P01116+P62937, G12V); experiment: Cellular RAS–RAF (CRAF RBD) disruption, nano-BRET in U2OS cells; type: cell-based; parameters: expressed in transfected cells; host or cells: U2OS PPIA-KO; Cellular RAS-RAF disruption G12V / Cellular nano-BRET G12V: scale not given here
Text: KRAS4B, or other small GTPases, containing the indicated mutations were cloned in pNLF-N or pHTN plasmids for expression with an N-terminal nanoluciferase or HaloTag fusion, respectively. […] The following day, the cells were collected by Trypsin and reseeded in a white tissue culture-treated 96-well plate in OptiMem phenol red-free medium (Gibco) containing 4% FBS and a 1:1,000 dilution of NanoBRET 618 HaloTag ligand (Promega). For endpoint concentration response curves, vivazine nanoluciferase substrate was added to 1× concentration in OptiMem phenol red-free medium with 4% FBS. Varying concentrations of inhibitor were added and incubated for 1 or 4 h before the nano-BRET signal was measured on a Perkin Elmer Envision plate reader. For kinetic assays, endurazine nanoluciferase substrate was used in place of vivazine, and the plate was placed in a Cytation5 multi-mode reader pre-equilibrated to 37 °C and 5% CO2.

[2] = test system: KRAS^G12X PDAC, CRC and NSCLC xenograft models; experiment: Panel of 15 KRAS^G12X CDX and PDX xenograft models; type: in vivo, mouse; conditions: for % Tumor Volume Change: 10 mg/kg
Procedure: Xenograft studies were conducted at GenenDesign, Pharmaron, Wuxi AppTec, the laboratory of P. Lito, and the laboratory of C. Ambrogio. […] All procedures related to animal handling, care and treatment were conducted in compliance with all applicable regulations and guidelines of the relevant Institutional Animal Care and Use Committee (IACUC). […] Experimental details are supplied in the Supplementary Methods.

[3] = Oral bioavailability in mice (LC-MS/MS of blood); type: in vivo; conditions: mouse, whole blood, read-out: Oral Bioavailability m%F
[4] = target: T1, MRAS and other RAS family small GTPase proteins (Homo sapiens, UniProt Q15382); experiment: Cellular BRET between CYPA and small GTPases (RIT1, MRAS, RRAS, RRAS2, Rheb); type: cell-based; conditions: RHEB, single replicates
T1 construct: expressed in transfected cells; host or cells: U2OS PPIA-KO
T1 sequence (Q15382 whole entry): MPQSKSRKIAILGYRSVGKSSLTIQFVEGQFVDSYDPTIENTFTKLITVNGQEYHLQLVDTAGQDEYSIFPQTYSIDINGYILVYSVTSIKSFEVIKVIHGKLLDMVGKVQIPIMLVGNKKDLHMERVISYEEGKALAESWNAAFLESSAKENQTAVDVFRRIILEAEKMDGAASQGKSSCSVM

SMILES: CCn1c(-c2cc(N3CCN(C4CC4)CC3)cnc2[C@H](C)OC)c2c3cc(ccc31)-c1csc(n1)C[C@H](NC(=O)[C@H]1[C@@H]3COC[C@@H]31)C(=O)N1CCC[C@H](N1)C(=O)OCC(C)(C)C2 [RMC-7977]
- Cellular RAS-RAF disruption G12V ([1]; RMC-7977 111.11 nM): 1.99 and 1.6717
- Cellular RAS-RAF disruption G12V ([1]; RMC-7977 166.67 nM): 0.38
- Cellular RAS-RAF disruption G12V ([1]; RMC-7977 500.00 nM): 0.05
- Cellular nano-BRET G12V ([1]; calculated RMC-7977:CYPA complexes 1.95 nM): 99.62
- Cellular nano-BRET G12V ([1]; calculated RMC-7977:CYPA complexes 34.93 nM): 41.01 and 56.3646
- Cellular nano-BRET G12V ([1]; calculated RMC-7977:CYPA complexes 52.21 nM): 66.75
- Cellular nano-BRET G12V ([1]; calculated RMC-7977:CYPA complexes 153.42 nM): 36.46
- Cellular nano-BRET G12V ([1]; calculated RMC-7977:CYPA complexes 297.71 nM): 8.26 and 13.953
- Cellular nano-BRET G12V ([1]; calculated RMC-7977:CYPA complexes 433.65 nM): 13.89
- Cellular nano-BRET G12V ([1]; calculated RMC-7977:CYPA complexes 798.08 nM): 4 and 4.5731
- Cellular nano-BRET G12V ([1]; calculated RMC-7977:CYPA complexes 1814.88 nM): 1.99 and 1.6717
- Cellular nano-BRET G12V ([1]; calculated RMC-7977:CYPA complexes 2304.15 nM): 0.38
- Cellular nano-BRET G12V ([1]; calculated RMC-7977:CYPA complexes 3597.12 nM): 0.05
- % Tumor Volume Change ([2]; CRC039, RMC-7977 10 mg/kg po qd, day 0 on study, individual animals): 241.9% and 219.3% and 159.4%
- % Tumor Volume Change ([2]; CRC039, RMC-7977 10 mg/kg po qd, day 4 on study, individual animals): 220.3% and 125.3% and 145.8%
- % Tumor Volume Change ([2]; CRC039, RMC-7977 10 mg/kg po qd, day 7 on study, individual animals): 121.8% and 118.8% and 123%
- % Tumor Volume Change ([2]; CRC039, RMC-7977 10 mg/kg po qd, day 11 on study, individual animals): 74.4% and 112.7% and 94.2%
- % Tumor Volume Change ([2]; CRC039, RMC-7977 10 mg/kg po qd, day 14 on study, individual animals): 80.2% and 106.6% and 94.1%
- % Tumor Volume Change ([2]; CRC039, RMC-7977 10 mg/kg po qd, day 18 on study, individual animals): 81.1%
- % Tumor Volume Change ([2]; PDAC G12D, BALB/c nude mice, 10 mg/kg po qd, day 0, individual animals): 153.24% and 151.4%
- % Tumor Volume Change ([2]; PDAC G12D, BALB/c nude mice, 10 mg/kg po qd, day 3, individual animals): 209.83% and 173.4%
- % Tumor Volume Change ([2]; PDAC G12D, BALB/c nude mice, 10 mg/kg po qd, day 7, individual animals): 163.81% and 154.57%
- % Tumor Volume Change ([2]; PDAC G12D, BALB/c nude mice, 10 mg/kg po qd, day 14, individual animals): 89.27% and 198.15%
- % Tumor Volume Change ([2]; PDAC G12D, BALB/c nude mice, 10 mg/kg po qd, day 17, individual animals): 109.93% and 119.08%
- % Tumor Volume Change ([2]; PDAC G12D, BALB/c nude mice, 10 mg/kg po qd, day 21, individual animals): 193.02% and 99.24%
- % Tumor Volume Change ([2]; PDAC G12D, BALB/c nude mice, 10 mg/kg po qd, day 24, individual animals): 160.39% and 128.81%
- % Tumor Volume Change ([2]; PDAC G12D, BALB/c nude mice, 10 mg/kg po qd, day 28, individual animals): 162.11% and 110.97%
- % Tumor Volume Change ([2]; PSN-1, BALB/c nude mice, 10 mg/kg po qd, day 0, individual animals): 179% and 166%
- % Tumor Volume Change ([2]; PSN-1, BALB/c nude mice, 10 mg/kg po qd, day 3, individual animals): 154% and 97%
- % Tumor Volume Change ([2]; PSN-1, BALB/c nude mice, 10 mg/kg po qd, day 7, individual animals): 134% and 82%
- % Tumor Volume Change ([2]; PSN-1, BALB/c nude mice, 10 mg/kg po qd, day 10, individual animals): 126% and 70%
- % Tumor Volume Change ([2]; PSN-1, BALB/c nude mice, 10 mg/kg po qd, day 14, individual animals): 117% and 66%
- % Tumor Volume Change ([2]; PSN-1, BALB/c nude mice, 10 mg/kg po qd, day 17, individual animals): 116% and 65%
- % Tumor Volume Change ([2]; PSN-1, BALB/c nude mice, 10 mg/kg po qd, day 21, individual animals): 121% and 60%
- % Tumor Volume Change ([2]; PSN-1, BALB/c nude mice, 10 mg/kg po qd, day 24, individual animals): 131% and 55%
- % Tumor Volume Change ([2]; PSN-1, BALB/c nude mice, 10 mg/kg po qd, day 28, individual animals): 132%
- median time to tumour doubling ([2]; treatment up to 90 days, Kaplan–Meier analysis): did not reach a median time to tumour doubling
- bioavailability [3]: 63%
- Cellular milliBRET signal between CYPA and small GTPase protein ([4]; RMC-7977 1.524 nM): -0.45 milliBRET and -0.2239 milliBRET and 0.1289 milliBRET and 0.6887 milliBRET and -0.5364 milliBRET and -0.5485 milliBRET
- Cellular milliBRET signal between CYPA and small GTPase protein ([4]; RMC-7977 4.572 nM): 0.6966 milliBRET and 0.368 milliBRET and 0.4716 milliBRET and -0.2095 milliBRET and 0.8367 milliBRET and -0.3539 milliBRET
- Cellular milliBRET signal between CYPA and small GTPase protein ([4]; RMC-7977 13.717 nM): 1.377 milliBRET and 0.5452 milliBRET and 0.5599 milliBRET and 0.1038 milliBRET and 0.7915 milliBRET and 0.2385 milliBRET
- Cellular milliBRET signal between CYPA and small GTPase protein ([4]; RMC-7977 41.152 nM): 0.3762 milliBRET and 0.1445 milliBRET and -0.08351 milliBRET and -0.3538 milliBRET and 0.07098 milliBRET and 0.09785 milliBRET
- Cellular milliBRET signal between CYPA and small GTPase protein ([4]; RMC-7977 123.457 nM): 1.173 milliBRET and 0.0474 milliBRET and 0.6247 milliBRET and 0.06196 milliBRET and -0.03233 milliBRET and -0.4308 milliBRET
- Cellular milliBRET signal between CYPA and small GTPase protein ([4]; RMC-7977 370.370 nM): 0.02833 milliBRET and 1.208 milliBRET and -0.3412 milliBRET and 1.195 milliBRET and -0.2334 milliBRET and 1.355 milliBRET
- Cellular milliBRET signal between CYPA and small GTPase protein ([4]; RMC-7977 1111.111 nM): 0.8505 milliBRET and -0.1562 milliBRET and 0.9686 milliBRET and -0.197 milliBRET and 0.47 milliBRET and 0.6063 milliBRET
